# Measured values published in US10023544B2, “Heterocyclic compound” (Takeda Pharmaceutical Company Limited, priority 2014, dated 2018).
# Where a name gives a salt, the structure may show the parent alone.
# Tests used:
# [1] = test system: HFD-fed mouse; test: Test on elevation of protein concentration in feces using HFD-fed mouse; format: in vivo; conditions: 10 mg/kg oral, whole feces at day 1 of administration, mean ± SD
# Experimental: A 0.5% methylcellulose suspension (test compound administered group, 5 mice per group) containing each test compound (10 mg/kg) or a 0.5% methylcellulose suspension (test compound non-administered group (vehicle), 5 mice per group) was orally administered to each high fat diet-fed (HFD-fed) mouse (D12079B diet, male, 15 weeks old), and the whole feces were recovered at day 1 of administration. The dry feces were dissolved in a 0.5 N aqueous sodium hydroxide solution. After centrifugation at 12,000 rpm, a protein concentration was quantified (Lowry method) using the supernatant to calculate a protein concentration (mg/g feces) in 1 g of feces. The mean and standard deviation of each group are shown below.
# [2] = molecular target: T1, Human recombinant enteropeptidase (Homo sapiens, UniProt P98073); test: Human enteropeptidase inhibitory activity; format: biochemical; conditions: 3.3 uM test compound, fluorescence intensity 2 hours after start of reaction; for inhibition at 3.3 µM: read-out: Inhibition rate at 3.3 uM (%)
# T1 construct: purchased ITSI-Biosciences, LLC #REN-260
# T1 sequence (P98073 whole entry): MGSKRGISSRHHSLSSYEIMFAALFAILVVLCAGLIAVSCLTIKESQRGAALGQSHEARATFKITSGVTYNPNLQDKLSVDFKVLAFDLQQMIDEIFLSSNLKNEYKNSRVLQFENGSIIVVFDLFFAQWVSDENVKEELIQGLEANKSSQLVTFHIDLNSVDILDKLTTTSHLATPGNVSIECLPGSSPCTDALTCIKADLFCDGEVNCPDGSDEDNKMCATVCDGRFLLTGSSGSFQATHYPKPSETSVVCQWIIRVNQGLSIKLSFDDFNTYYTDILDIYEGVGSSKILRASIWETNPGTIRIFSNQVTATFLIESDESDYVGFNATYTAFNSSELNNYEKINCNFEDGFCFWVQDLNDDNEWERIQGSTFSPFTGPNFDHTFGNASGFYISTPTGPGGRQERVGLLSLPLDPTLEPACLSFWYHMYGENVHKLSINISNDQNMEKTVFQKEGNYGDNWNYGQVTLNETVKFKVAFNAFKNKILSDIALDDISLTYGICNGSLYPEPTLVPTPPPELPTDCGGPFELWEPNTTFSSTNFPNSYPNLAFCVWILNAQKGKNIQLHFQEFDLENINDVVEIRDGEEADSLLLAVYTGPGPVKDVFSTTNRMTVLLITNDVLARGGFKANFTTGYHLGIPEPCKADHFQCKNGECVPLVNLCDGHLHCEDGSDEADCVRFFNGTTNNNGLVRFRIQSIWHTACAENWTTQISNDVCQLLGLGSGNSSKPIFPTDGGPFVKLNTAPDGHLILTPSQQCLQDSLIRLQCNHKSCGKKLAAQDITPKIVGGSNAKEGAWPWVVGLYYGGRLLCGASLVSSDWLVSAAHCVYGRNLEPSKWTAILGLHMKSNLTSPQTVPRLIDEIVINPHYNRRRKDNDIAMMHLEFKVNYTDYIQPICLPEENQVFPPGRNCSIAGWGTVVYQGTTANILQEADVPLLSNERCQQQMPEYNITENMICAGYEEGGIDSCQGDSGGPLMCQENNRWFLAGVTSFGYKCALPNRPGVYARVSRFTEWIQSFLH
# Experimental: Human recombinant enteropeptidase (#REN-260, ITSI-Biosciences, LLC) was diluted with an assay buffer (50 mM Tricine (pH 8.0), 0.01 (w/v) % Tween 20, 10 mM CaCl2) to prepare a 24 mU/mL enzyme solution. Subsequently, 5FAM-Abu-Gly-Asp-Asp-Asp-Lys-Ile-Val-Gly-Gly-Lys(CPQ2)-Lys-Lys-NH2 (purity: 97.2%, CPC Scientific, Inc.) produced according to a synthesis method known per se was diluted with an assay buffer to prepare a 2.1 uM (“u” represents “micro”) substrate solution. Each test compound was dissolved in DMSO to prepare a 1 mM solution, which was then diluted 100-fold with an assay buffer to prepare a compound solution. The compound solution (5 uL/well) and the substrate solution (5 uL/well) were added to a 384-well black plate (#784076, Greiner Bio-One) and mixed. Then, the enzyme solution (5 uL/well) was added to the plate and mixed to start reaction. The fluorescence intensity was measured at an excitation wavelength of 485 nm and a fluorescence wavelength of 535 nm using a fluorescence plate reader EnVision (PerkinElmer Inc.). Also, the same reaction as above was performed except that the test compound was not added (test compound non-supplemented group). In addition, the same reaction as above was performed except that neither the test compound nor the enzyme was added (control group). The inhibition rate was calculated from the fluorescence intensity 2 hours after the start of the reaction according to the following equation: Inhibition rate (%)=(1−(Fluorescence intensity of the test compound supplemented group−Fluorescence intensity of the control group)/(Fluorescence intensity of the test compound non-supplemented group−Fluorescence intensity of the control group))×100
# [3] = test system: DIO mouse; test: Test on antiobesity action using DIO mouse; format: in vivo; conditions: mean ± SD; for Body weight (g) At start of administration: baseline
# Experimental: A 0.5% methylcellulose suspension (test compound administered group, 5 or 6 mice per group) containing each test compound (20 or 60 mg/kg) or a 0.5% methylcellulose suspension (test compound non-administered group (vehicle), 6 mice per group) was orally administered to each diet-induced obesity (DIO) mouse (D12079B diet, male, 46 weeks old) once a day for 4 weeks. The means of body weights and standard deviations at the start of administration and after 4-week continuous administration are shown below.
SMILES,inhibition at 3.3 µM [2] [%],also measured
"N=C(N)Nc1ccc(C(=O)Oc2cccc(C3=NO[C@@](CC(=O)O)(C(=O)O)C3)c2)cc1 [Example 5, (5S)-3-(3-((4-Carbamimidamidobenzoyl)oxy)phenyl)-5-(carboxymethyl)-4,5-dihydro-1,2-oxazole-5-carboxylic acid]",101,Protein concentration in feces [1]: 144.5 ± 26.6 mg/g
"CC(C)(C)C1CCC(c2cc(OC(=O)c3ccc(NC(=N)N)cc3)cc(C3=NOC(CC(=O)O)(C(=O)O)C3)c2)CC1 (stereo not drawn) [Example 13, 3-(3-(4-tert-butylcyclohexyl)-5-((4-carbamimidamidobenzoyl)oxy)phenyl)-5-(carboxymethyl)-4,5-dihydro-1,2-oxazole-5-carboxylic acid (cis or trans form)]",,Inhibition rate at 3.3 uM (%) ([2]; 3.3 µM): 100%
"N=C(N)Nc1ccc(C(=O)Oc2ccc(CCC(=O)O)c(C3=NOC(CC(=O)O)(CC(=O)O)C3)c2)cc1 [Example 24, 3-(2-(5,5-bis(carboxymethyl)-4,5-dihydro-1,2-oxazol-3-yl)-4-((4-carbamimidamidobenzoyl)oxy)phenyl)propanoic acid]",100,
"N=C(N)Nc1ccc(C(=O)Oc2ccc(CCC(=O)NCCC(=O)O)c(C3=NOC(CC(=O)O)(CC(=O)O)C3)c2)cc1 [Example 32, N-(3-(2-(5,5-bis(carboxymethyl)-4,5-dihydro-1,2-oxazol-3-yl)-4-((4-carbamimidamidobenzoyl)oxy)phenyl)propanoyl)-beta-alanine]",100,
"CS(=O)(=O)CCNC(=O)CCc1ccc(OC(=O)c2ccc(NC(=N)N)cc2)cc1C1=NOC(CC(=O)O)(CC(=O)O)C1 [Example 27, 2,2′-(3-(5-((4-carbamimidamidobenzoyl)oxy)-2-(3-((2-(methylsulfonyl)ethyl)amino)-3-oxopropyl)phenyl)-4,5-dihydro-1,2-oxazole-5,5-diyl)diacetic acid]",100,

# Further lines, with some results ahead:
inhibition at 3.3 µM [2] [%],SMILES,also measured
101,"N=C(N)Nc1ccc(C(=O)Oc2cccc(C3=NO[C@](CC(=O)O)(C(=O)O)C3)c2)cc1 [Example 1, (5R)-3-(3-((4-Carbamimidamidobenzoyl)oxy)phenyl)-5-(carboxymethyl)-4,5-dihydro-1,2-oxazole-5-carboxylic acid]",Protein concentration in feces [1]: 151.5 ± 22.8 mg/g; Body weight (g) After 4-week continuous administration ([3]; 20 mg/kg oral once a day for 4 weeks): 43.1 ± 3.5 g; Body weight (g) At start of administration ([3]; 20 mg/kg oral once a day): 48.9 ± 2.0 g; Body weight (g) After 4-week continuous administration ([3]; 60 mg/kg oral once a day for 4 weeks): 40.2 ± 2.1 g; Body weight (g) At start of administration ([3]; 60 mg/kg oral once a day): 48.9 ± 2.5 g
100,"N=C(N)Nc1ccc(C(=O)Oc2cc(CCC(=O)O)cc(C3=NOC(CC(=O)O)(C(=O)O)C3)c2)cc1 (stereo not shown) [Example 14, 3-(3-((4-Carbamimidamidobenzoyl)oxy)-5-(2-carboxyethyl)phenyl)-5-(carboxymethyl)-4,5-dihydro-1,2-oxazole-5-carboxylic acid trifluoroacetate]",
101,"N=C(N)Nc1ccc(C(=O)Oc2ccc(C3CCN(C(=O)CCC(=O)O)CC3)c(C3=NOC(CC(=O)O)(CC(=O)O)C3)c2)cc1 [Example 7, 4-(4-(2-(5,5-Bis(carboxymethyl)-4,5-dihydro-1,2-oxazol-3-yl)-4-((4-carbamimidamidobenzoyl)oxy)phenyl)piperidin-1-yl)-4-oxobutanoic acid trifluoroacetate]",
100,"N=C(N)Nc1ccc(C(=O)Oc2cc(CCC(=O)N[C@@H](CC(=O)O)C(=O)O)cc(C3=NOC(CC(=O)O)(CC(=O)O)C3)c2)cc1 [Example 23, N-(3-(3-(5,5-bis(carboxymethyl)-4,5-dihydro-1,2-oxazol-3-yl)-5-((4-carbamimidamidobenzoyl)oxy)phenyl)propanoyl)-L-aspartic acid]",
87,"Cc1ccc(C2=NOC(CC(=O)O)(C(=O)O)C2)cc1OC(=O)c1ccc(NC(=N)N)cc1 (stereo not shown) [Example 17, 3-(3-((4-carbamimidamidobenzoyl)oxy)-4-methylphenyl)-5-(carboxymethyl)-4,5-dihydro-1,2-oxazole-5-carboxylic acid]",
